According to patent publication US11571455B2, “Methods and compositions for treating alcoholic liver disease” (VANDERBILT UNIVERSITY, priority 2013, dated 2023):
Bridge positions count the residues as written; N and C are the ends. Peptide text beside a SMILES is read from it.

What was measured:
[1] = tested on: nuclear import of NF-κB, AP-1, NFAT, and STAT1 in Jurkat T cells; type: cell-based, human
[2] = biological target: T1, importin α5/karyopherin α1 (/KPNA1/SRP1) (Homo sapiens, UniProt P52294); test: Binding to the nuclear import adaptor
T1 construct: SRP1/importin alpha 5 (karyopherin alpha1)/importin beta 1 heterodimer expressed in Jurkat T cells; endogenous in cells; host or cells: Jurkat T cells
T1 sequence (P52294 whole entry): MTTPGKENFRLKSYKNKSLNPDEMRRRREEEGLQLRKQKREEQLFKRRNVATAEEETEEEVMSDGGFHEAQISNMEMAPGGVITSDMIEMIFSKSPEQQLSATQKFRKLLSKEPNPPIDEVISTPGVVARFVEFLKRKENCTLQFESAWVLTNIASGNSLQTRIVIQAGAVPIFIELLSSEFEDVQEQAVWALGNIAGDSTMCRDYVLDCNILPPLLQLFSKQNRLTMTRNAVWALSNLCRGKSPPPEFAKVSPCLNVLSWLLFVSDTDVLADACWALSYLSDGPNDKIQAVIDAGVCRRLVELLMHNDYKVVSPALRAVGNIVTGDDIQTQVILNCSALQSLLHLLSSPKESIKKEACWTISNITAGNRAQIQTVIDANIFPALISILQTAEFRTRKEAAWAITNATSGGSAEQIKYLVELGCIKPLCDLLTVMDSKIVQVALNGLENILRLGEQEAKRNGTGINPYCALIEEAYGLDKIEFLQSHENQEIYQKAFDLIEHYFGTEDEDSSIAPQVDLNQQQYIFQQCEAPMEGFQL
T1 sequence (Q14974 whole entry partner): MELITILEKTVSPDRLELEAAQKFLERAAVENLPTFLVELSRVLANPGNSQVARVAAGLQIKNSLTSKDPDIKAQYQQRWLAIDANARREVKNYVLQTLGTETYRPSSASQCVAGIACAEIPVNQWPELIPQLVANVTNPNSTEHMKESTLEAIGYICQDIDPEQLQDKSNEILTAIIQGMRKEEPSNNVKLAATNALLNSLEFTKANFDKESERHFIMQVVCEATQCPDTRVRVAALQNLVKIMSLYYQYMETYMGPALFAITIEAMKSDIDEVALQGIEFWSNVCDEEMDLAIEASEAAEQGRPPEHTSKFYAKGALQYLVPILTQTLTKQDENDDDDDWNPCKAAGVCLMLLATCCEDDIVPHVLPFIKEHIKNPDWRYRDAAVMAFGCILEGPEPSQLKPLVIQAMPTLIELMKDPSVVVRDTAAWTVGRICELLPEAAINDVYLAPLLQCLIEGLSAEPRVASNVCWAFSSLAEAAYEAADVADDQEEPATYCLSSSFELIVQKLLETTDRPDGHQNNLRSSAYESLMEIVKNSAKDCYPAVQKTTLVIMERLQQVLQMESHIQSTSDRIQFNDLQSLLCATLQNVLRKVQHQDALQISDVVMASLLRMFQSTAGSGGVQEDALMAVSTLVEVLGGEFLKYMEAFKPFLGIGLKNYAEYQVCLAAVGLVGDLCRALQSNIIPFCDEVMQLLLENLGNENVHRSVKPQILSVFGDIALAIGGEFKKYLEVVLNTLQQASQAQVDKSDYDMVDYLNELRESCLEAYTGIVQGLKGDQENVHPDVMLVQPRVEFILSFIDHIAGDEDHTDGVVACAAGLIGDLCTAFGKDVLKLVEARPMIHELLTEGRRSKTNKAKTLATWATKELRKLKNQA
Text: Inflammatory liver injury mediated by macrophages (Kupffer cells) or T cells depends on the nuclear import of SRTFs. SRTFs regulate the genome response to proinflammatory and proapoptotic cues. The mechanism of action of cell-penetrating peptides SN50 and its cyclized analog cSN50 that inhibit the nuclear import of SRTFs is shown herein. SN50 binds to a nuclear import adaptor protein termed importin α5/karyopherin α1 (/KPNA1/SRP1) and inhibits its function as a cytoplasmic/nuclear shuttle for SRTFs. […] However, prior to the present disclosure, it was not known how EtOH influences the importin α5/karyopherin α1 (/KPNA1/SRP1)—mediated signaling to the nucleus and genome response in hepatocytes induced by LPS or Con A. Also identified was another putative nuclear import adapter, termed SARM, which appears to participate in LPS-induced liver injury. […] Example 2: Nuclear Import of Stress-Responsive Transcription Factors (SRTFs) Is Required for Inflammatory and Apoptotic Gene Expression.
It is well-recognized that signaling to the nucleus plays a key role in the response of T lymphocytes to immune and inflammatory stimuli. […]

[3] = tested on: Staphylococcal enterotoxin B-induced systemic inflammation; settings: mouse, in vivo

Row | Molecule | nuclear import of SRTFs [1] | binding to importin α5/karyopherin α1 [2] | undesirable side effects [3]
1 | AAVALLPAVLLALLAPVQRKRQKLMP [SN50, SSHR of K-FGF linked to NLS of NF-κB1 p50] | prevents nuclear import of four SRTFs | binds | 
2 | CSCC[C@@H]1NC(=O)[C@H](CC(C)C)NC(=O)[C@H](CCCCN)NC(=O)[C@H](CCC(N)=O)NC(=O)[C@H](CCCNC(=N)N)NC(=O)[C@H](CCCCN)NC(=O)[C@H](CCCNC(=N)N)NC(=O)[C@H](CCC(N)=O)NC(=O)[C@H](C(C)C)NC(=O)[C@H](Cc2ccc(O)cc2)NC(=O)[C@@H](NC(=O)[C@@H]2CCCN2C(=O)[C@H](C)NC(=O)[C@H](CC(C)C)NC(=O)[C@H](CC(C)C)NC(=O)[C@H](C)NC(=O)[C@H](CC(C)C)NC(=O)[C@H](CC(C)C)NC(=O)[C@@H](NC(=O)[C@H](C)NC(=O)[C@@H]2CCCN2C(=O)[C@H](CC(C)C)NC(=O)[C@H](CC(C)C)NC(=O)[C@H](C)NC(=O)[C@@H](NC(=O)[C@H](C)NC(=O)[C@H](C)N)C(C)C)C(C)C)CSSC[C@@H](C(=O)O)NC(=O)[C@@H]2CCCN2C1=O [cSN50] (H-AAVALLPAVLLALLAPCYVQRKRQKLMPC-OH; disulfide 17-29; N-terminus and C-terminus assumed) |  |  | does not seem to cause undesirable side effects
